31 molecules from patent publication US8691865B2 (AbbVie Inc., priority 2008, dated 2014) can be followed below.

Chain of human Cav2.2 (Q00975 whole entry): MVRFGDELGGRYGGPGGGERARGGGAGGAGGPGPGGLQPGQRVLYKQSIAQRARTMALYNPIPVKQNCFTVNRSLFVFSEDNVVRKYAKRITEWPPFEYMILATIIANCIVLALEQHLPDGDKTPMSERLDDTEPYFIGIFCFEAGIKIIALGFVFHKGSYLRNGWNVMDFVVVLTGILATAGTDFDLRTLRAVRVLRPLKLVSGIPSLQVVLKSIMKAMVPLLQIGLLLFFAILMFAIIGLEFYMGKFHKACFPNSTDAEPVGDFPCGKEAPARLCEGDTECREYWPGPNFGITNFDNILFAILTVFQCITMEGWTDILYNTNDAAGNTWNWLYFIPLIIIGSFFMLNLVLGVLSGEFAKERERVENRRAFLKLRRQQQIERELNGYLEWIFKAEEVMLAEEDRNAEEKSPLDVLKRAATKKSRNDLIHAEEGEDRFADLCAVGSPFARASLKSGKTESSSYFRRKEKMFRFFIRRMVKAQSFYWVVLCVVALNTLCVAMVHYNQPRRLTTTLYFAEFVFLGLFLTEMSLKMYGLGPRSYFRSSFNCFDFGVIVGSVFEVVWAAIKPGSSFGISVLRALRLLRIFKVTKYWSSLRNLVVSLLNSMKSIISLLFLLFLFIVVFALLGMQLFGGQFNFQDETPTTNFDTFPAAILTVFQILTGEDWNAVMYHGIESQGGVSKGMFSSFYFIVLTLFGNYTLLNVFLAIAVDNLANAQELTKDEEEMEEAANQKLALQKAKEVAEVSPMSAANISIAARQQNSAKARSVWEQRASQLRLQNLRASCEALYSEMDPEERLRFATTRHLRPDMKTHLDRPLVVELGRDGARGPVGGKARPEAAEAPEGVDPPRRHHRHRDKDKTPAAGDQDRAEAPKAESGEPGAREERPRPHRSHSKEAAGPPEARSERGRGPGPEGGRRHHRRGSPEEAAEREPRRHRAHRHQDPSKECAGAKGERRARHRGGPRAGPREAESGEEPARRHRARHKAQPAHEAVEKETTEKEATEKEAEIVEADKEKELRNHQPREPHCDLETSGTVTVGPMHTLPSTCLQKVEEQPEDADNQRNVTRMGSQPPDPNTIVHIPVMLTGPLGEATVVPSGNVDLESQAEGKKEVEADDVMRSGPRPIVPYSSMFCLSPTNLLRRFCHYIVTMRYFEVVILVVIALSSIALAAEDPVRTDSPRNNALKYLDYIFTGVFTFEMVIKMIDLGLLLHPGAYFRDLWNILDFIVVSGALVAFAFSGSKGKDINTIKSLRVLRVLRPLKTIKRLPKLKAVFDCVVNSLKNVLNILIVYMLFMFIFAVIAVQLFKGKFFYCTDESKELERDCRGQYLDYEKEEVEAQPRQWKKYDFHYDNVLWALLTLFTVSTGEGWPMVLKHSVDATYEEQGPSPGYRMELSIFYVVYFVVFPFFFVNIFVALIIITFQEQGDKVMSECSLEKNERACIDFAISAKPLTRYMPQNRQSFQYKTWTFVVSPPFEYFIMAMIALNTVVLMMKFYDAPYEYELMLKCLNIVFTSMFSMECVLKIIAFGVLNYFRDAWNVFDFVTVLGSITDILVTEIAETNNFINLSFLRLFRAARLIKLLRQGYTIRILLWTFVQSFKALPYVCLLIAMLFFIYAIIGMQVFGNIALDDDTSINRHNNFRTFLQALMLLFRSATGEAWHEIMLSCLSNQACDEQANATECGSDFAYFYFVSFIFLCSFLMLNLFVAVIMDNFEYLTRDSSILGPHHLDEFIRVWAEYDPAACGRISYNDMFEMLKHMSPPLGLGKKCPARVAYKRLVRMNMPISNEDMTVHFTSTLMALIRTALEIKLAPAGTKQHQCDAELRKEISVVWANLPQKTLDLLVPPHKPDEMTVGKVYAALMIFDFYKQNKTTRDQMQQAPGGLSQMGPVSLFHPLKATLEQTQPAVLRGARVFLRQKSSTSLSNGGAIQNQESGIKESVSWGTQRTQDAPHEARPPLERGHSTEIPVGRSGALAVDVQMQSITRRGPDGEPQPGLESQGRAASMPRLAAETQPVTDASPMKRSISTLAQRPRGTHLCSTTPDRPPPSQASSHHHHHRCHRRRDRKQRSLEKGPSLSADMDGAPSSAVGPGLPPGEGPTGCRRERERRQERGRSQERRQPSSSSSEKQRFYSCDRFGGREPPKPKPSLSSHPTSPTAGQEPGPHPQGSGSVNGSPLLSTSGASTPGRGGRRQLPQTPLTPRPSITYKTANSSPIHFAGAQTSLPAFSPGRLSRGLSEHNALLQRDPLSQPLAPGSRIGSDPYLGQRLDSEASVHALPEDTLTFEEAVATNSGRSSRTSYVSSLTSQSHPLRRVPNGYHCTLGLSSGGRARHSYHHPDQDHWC
Chain of human Cav2.2 (P54289 25-956 partner limits assumed): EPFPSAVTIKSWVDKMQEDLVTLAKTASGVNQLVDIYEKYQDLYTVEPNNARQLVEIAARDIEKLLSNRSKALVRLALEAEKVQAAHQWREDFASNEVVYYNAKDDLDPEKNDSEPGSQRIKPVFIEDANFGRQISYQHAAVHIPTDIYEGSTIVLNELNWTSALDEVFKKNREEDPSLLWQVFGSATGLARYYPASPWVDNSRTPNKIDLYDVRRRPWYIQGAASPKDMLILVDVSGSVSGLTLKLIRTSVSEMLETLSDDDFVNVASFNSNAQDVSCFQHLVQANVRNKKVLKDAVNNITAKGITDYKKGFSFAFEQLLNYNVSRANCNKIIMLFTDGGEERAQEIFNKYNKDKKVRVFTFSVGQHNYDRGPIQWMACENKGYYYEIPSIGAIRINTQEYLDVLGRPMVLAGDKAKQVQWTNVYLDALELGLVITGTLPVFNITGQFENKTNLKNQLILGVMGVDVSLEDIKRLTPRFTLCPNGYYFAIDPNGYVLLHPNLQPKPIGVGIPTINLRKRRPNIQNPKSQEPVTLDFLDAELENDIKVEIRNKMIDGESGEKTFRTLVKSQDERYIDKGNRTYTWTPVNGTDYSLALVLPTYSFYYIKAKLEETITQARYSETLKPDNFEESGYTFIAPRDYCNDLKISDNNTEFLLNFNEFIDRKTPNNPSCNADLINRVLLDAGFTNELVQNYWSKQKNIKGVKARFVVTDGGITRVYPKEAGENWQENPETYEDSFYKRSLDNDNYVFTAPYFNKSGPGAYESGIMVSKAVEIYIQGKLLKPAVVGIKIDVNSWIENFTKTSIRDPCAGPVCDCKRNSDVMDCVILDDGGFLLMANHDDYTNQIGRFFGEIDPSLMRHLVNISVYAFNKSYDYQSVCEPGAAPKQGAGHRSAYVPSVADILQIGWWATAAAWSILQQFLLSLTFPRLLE
Chain of human Cav2.2 (P54289 957-1103 partner limits assumed): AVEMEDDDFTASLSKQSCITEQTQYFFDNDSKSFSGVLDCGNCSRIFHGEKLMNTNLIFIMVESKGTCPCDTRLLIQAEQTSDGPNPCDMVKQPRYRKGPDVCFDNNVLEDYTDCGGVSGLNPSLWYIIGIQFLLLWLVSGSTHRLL
Chain of human Cav2.2 (P54284 whole entry partner): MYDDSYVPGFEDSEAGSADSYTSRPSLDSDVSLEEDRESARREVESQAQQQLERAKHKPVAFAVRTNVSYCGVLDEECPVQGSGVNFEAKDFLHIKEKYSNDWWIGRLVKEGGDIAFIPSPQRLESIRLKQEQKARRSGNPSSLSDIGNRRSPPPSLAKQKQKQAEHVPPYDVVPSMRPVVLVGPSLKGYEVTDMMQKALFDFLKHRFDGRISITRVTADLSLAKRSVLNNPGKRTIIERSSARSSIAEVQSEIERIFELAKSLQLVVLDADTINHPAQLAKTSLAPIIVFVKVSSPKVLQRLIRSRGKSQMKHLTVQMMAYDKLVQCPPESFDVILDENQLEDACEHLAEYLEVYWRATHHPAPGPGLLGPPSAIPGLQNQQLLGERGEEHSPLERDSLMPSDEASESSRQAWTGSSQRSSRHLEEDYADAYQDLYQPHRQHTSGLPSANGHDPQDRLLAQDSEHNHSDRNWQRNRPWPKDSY

In this assay the target is human Cav2.2 (Homo sapiens, UniProt Q00975). Nature of the assay: Assessment of calcium channel activity using FLIPR (Ca2+ influx in IMR32 cells). The format is cell-based. The method, boiled down:
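IC50 values derive from nonlinear sigmoidal fitting of percent inhibition, relative to inhibitor-free activity, of Ca2+ influx read by FLIPR. Cells were IMR32 human neuroblastoma, plated at 1−1.2×10^5 per well and grown 48 h at 37 °C.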
Consider `O=C(CC(O)C(F)(F)F)N[C@H]1CC[C@@H]2CN(c3cccc(C(F)(F)F)n3)C[C@@H]21` (stereo partly drawn) [Example 586, 4,4,4-trifluoro-3-hydroxy-N-{(3aR,4S,6aS)-2-[6-(trifluoromethyl)pyridin-2-yl]octahydrocyclopenta[c]pyrrol-4-yl}butanamide], for which the IC50 (commonly the point on the concentration scale where inhibition reaches its midpoint) was determined as 2560 nM.
For the molecule `CCC[C@H](NC)C(=O)N[C@H]1CC[C@@H]2CN(c3cccc(C(F)(F)F)n3)C[C@@H]21` [Example 588, N^2-methyl-N-{(3aR,4S,6aS)-2-[6-(trifluoromethyl)pyridin-2-yl]octahydrocyclopenta[c]pyrrol-4-yl}-L-norvalinamide], the IC50 came to 1020 nM.
To `CCCC[C@H](NC)C(=O)N[C@H]1CC[C@@H]2CN(c3cccc(C(F)(F)F)n3)C[C@@H]21` [Example 589, N^2-methyl-N-{(3aR,4S,6aS)-2-[6-(trifluoromethyl)pyridin-2-yl]octahydrocyclopenta[c]pyrrol-4-yl}-L-norleucinamide] belongs 320 nM; to `CN[C@@H](CC(C)C)C(=O)N[C@H]1CC[C@@H]2CN(c3cccc(C(F)(F)F)n3)C[C@@H]21` [Example 590, N^2-methyl-N-{(3aR,4S,6aS)-2-[6-(trifluoromethyl)pyridin-2-yl]octahydrocyclopenta[c]pyrrol-4-yl}-L-leucinamide], 450 nM; to `CC(C)(C)[C@H](N)C(=O)N[C@H]1CC[C@@H]2CN(c3cccc(C(F)(F)F)n3)C[C@@H]21` [Example 591, 3-methyl-N-{(3aR,4S,6aS)-2-[6-(trifluoromethyl)pyridin-2-yl]octahydrocyclopenta[c]pyrrol-4-yl}-L-valinamide], 500 nM.
To `NC1(C(=O)N[C@H]2CC[C@@H]3CN(c4cccc(C(F)(F)F)n4)C[C@@H]32)CCCC1` [Example 594, 1-amino-N-{(3aR,4S,6aS)-2-[6-(trifluoromethyl)pyridin-2-yl]octahydrocyclopenta[c]pyrrol-4-yl}cyclopentanecarboxamide] belongs 1450 nM; to `O=C(N[C@H]1CC[C@@H]2CN(c3cccc(C(F)(F)F)n3)C[C@@H]21)[C@@H]1CC(F)(F)CN1` [Example 595, 4,4-difluoro-N-{(3aR,4S,6aS)-2-[6-(trifluoromethyl)pyridin-2-yl]octahydrocyclopenta[c]pyrrol-4-yl}-L-prolinamide], 2180 nM.
In the case of `O=C(N[C@H]1CC[C@@H]2CN(c3cccc(C(F)(F)F)n3)C[C@@H]21)[C@@H]1C[C@H](F)CN1` [Example 596, (4S)-4-fluoro-N-{(3aR,4S,6aS)-2-[6-(trifluoromethyl)pyridin-2-yl]octahydrocyclopenta[c]pyrrol-4-yl}-L-prolinamide], the IC50 was 4470 nM.
The value for `CCCC[C@H](NC)C(=O)N[C@H]1CC[C@@H]2CN(c3ccc(C(F)(F)F)cn3)C[C@@H]21` [Example 601, N^2-methyl-N-{(3aR,4S,6aS)-2-[5-(trifluoromethyl)pyridin-2-yl]octahydrocyclopenta[c]pyrrol-4-yl}-L-norleucinamide] was 2110 nM; that for `CN[C@@H](CC(C)(C)C)C(=O)N[C@H]1CC[C@@H]2CN(c3ccc(C(F)(F)F)cn3)C[C@@H]21` [Example 602, N^2,4-dimethyl-N-{(3aR,4S,6aS)-2-[5-(trifluoromethyl)pyridin-2-yl]octahydrocyclopenta[c]pyrrol-4-yl}-L-leucinamide] was 1880 nM.
As to `O=C(N[C@H]1CC[C@@H]2CN(c3ccc(C(F)(F)F)cn3)C[C@@H]21)[C@@H]1C[C@@H]2CCCC[C@@H]2N1` [Example 603, (2S,3aS,7aS)-N-{(3aR,4S,6aS)-2-[5-(trifluoromethyl)pyridin-2-yl]octahydrocyclopenta[c]pyrrol-4-yl}octahydro-1H-indole-2-carboxamide], the 50% inhibitory concentration (IC50) is 2220 nM.
In the case of `O=C(N[C@H]1CC[C@@H]2CN(c3ccc(C(F)(F)F)cn3)C[C@@H]21)[C@@H]1Cc2ccccc2N1` [Example 604, (2S)-N-{(3aR,4S,6aS)-2-[5-(trifluoromethyl)pyridin-2-yl]octahydrocyclopenta[c]pyrrol-4-yl}indoline-2-carboxamide], the concentration for half-maximal inhibition (IC50) was determined as 2780 nM.
The value for `N[C@H]1CC[C@@H]2CN(c3cccc(C(F)(F)F)c3)C[C@@H]21` [Example 605, (3aR,4S,6aS)-2-[3-(trifluoromethyl)phenyl]octahydrocyclopenta[c]pyrrol-4-amine] was 4330 nM.
With `CN[C@@H](CC(C)C)C(=O)N[C@H]1CC[C@@H]2CN(c3cccc(C(F)(F)F)c3)C[C@@H]21` [Example 606, N^2-methyl-N-{(3aR,4S,6aS)-2-[3-(trifluoromethyl)phenyl]octahydrocyclopenta[c]pyrrol-4-yl}-L-leucinamide], the IC50 is 1190 nM.
Consider `N[C@H]1CC[C@@H]2CN(c3ccc(C(F)(F)F)cc3)C[C@@H]21` [Example 607, (3aR,4S,6aS)-2-[4-(trifluoromethyl)phenyl]octahydrocyclopenta[c]pyrrol-4-amine], for which the IC50 stood at 6400 nM.
To `CC(C)N[C@H]1CC[C@@H]2CN(c3cccc(C(F)(F)F)n3)C[C@@H]21` [Example 609, (3aR,4S,6aS)-N-isopropyl-2-[6-(trifluoromethyl)pyridin-2-yl]octahydrocyclopenta[c]pyrrol-4-amine] belongs 1450 nM; to `CC(C)CN[C@H]1CC[C@@H]2CN(c3cccc(C(F)(F)F)n3)C[C@@H]21` [Example 610, (3aR,4S,6aS)-N-isobutyl-2-[6-(trifluoromethyl)pyridin-2-yl]octahydrocyclopenta[c]pyrrol-4-amine], 2010 nM.
As for `CC(C)(C)CCN[C@H]1CC[C@@H]2CN(c3cccc(C(F)(F)F)n3)C[C@@H]21` [Example 611, (3aR,4S,6aS)-N-(3,3-dimethylbutyl)-2-[6-(trifluoromethyl)pyridin-2-yl]octahydrocyclopenta[c]pyrrol-4-amine], the IC50 was found to be 500 nM.
For the molecule `FC(F)(F)c1cccc(N2C[C@H]3CC[C@H](NCc4cc5ccccc5[nH]4)[C@H]3C2)n1` [Example 612, (3aR,4S,6aS)-N-(1H-indol-2-ylmethyl)-2-[6-(trifluoromethyl)pyridin-2-yl]octahydrocyclopenta[c]pyrrol-4-amine], the IC50 was determined as 2240 nM.
The value for `Fc1ccc2[nH]c(CN[C@H]3CC[C@@H]4CN(c5ccc(C(F)(F)F)cn5)C[C@@H]43)cc2c1` [Example 614, (3aR,4S,6aS)-N-[(5-fluoro-1H-indol-2-yl)methyl]-2-[5-(trifluoromethyl)pyridin-2-yl]octahydrocyclopenta[c]pyrrol-4-amine] was 3330 nM.
In the case of `Fc1ccc2[nH]c(CN[C@H]3CC[C@@H]4CN(c5ccc(C(F)(F)F)cc5)C[C@@H]43)cc2c1` [Example 615, (3aR,4S,6aS)-N-[(5-fluoro-1H-indol-2-yl)methyl]-2-[4-(trifluoromethyl)phenyl]octahydrocyclopenta[c]pyrrol-4-amine], the IC50 amounted to 13700 nM.
As for `Fc1ccc2[nH]c(CN[C@H]3CC[C@@H]4CN(c5cccc(C(F)(F)F)c5)C[C@@H]43)cc2c1` [Example 616, (3aR,4S,6aS)-N-[(5-fluoro-1H-indol-2-yl)methyl]-2-[3-(trifluoromethyl)phenyl]octahydrocyclopenta[c]pyrrol-4-amine], the concentration for half-maximal inhibition (IC50) stood at 4220 nM.
As to `O=C(N[C@H]1CC[C@@H]2CN(c3cccc(C(F)(F)F)c3)C[C@@H]21)[C@@H]1C[C@@H](F)CN1` [Example 617, (4R)-4-fluoro-N-{(3aR,4S,6aS)-2-[3-(trifluoromethyl)phenyl]octahydrocyclopenta[c]pyrrol-4-yl}-L-prolinamide], the IC50 is 2570 nM.
As for `CN[C@@H](CC(C)C)C(=O)N[C@H]1CC[C@@H]2CN(c3ccccc3C(F)(F)F)C[C@@H]21` [Example 618, N^2-methyl-N-{(3aR,4S,6aS)-2-[2-(trifluoromethyl)phenyl]octahydrocyclopenta[c]pyrrol-4-yl}-L-leucinamide], the IC50 came out at 630 nM.
For the molecule `CN[C@@H](CC(C)C)C(=O)N[C@H]1CC[C@@H]2CN(c3ccccc3F)C[C@@H]21` [Example 619, N-[(3aR,4S,6aS)-2-(2-fluorophenyl)octahydrocyclopenta[c]pyrrol-4-yl]-N^2-methyl-L-leucinamide], the half-maximal inhibitory concentration (IC50) turned out to be 2840 nM.
For the molecule `CN[C@@H](CC(C)C)C(=O)N[C@H]1CC[C@@H]2CN(c3ccc(F)cc3)C[C@@H]21` [Example 620, N-[(3aR,4S,6aS)-2-(4-fluorophenyl)octahydrocyclopenta[c]pyrrol-4-yl]-N^2-methyl-L-leucinamide], the 50% inhibitory concentration (IC50) amounted to 5310 nM.
As for `CN[C@@H](CC(C)C)C(=O)N[C@H]1CC[C@@H]2CN(c3ccc(F)c(C(F)(F)F)c3)C[C@@H]21` [Example 621, N-{(3aR,4S,6aS)-2-[4-fluoro-3-(trifluoromethyl)phenyl]octahydrocyclopenta[c]pyrrol-4-yl}-N^2-methyl-L-leucinamide], the IC50 is 990 nM.
Consider `O=C(N[C@H]1CC[C@@H]2CN(c3ccccc3C(F)(F)F)C[C@@H]21)[C@@H]1C[C@@H](F)CN1` [Example 622, (4R)-4-fluoro-N-{(3aR,4S,6aS)-2-[2-(trifluoromethyl)phenyl]octahydrocyclopenta[c]pyrrol-4-yl}-L-prolinamide], for which the IC50 amounted to 1690 nM.
As for `O=C(N[C@H]1CC[C@@H]2CN(c3cccc(C(F)(F)F)c3F)C[C@@H]21)[C@@H]1C[C@@H](F)CN1` [Example 623, (4R)-4-fluoro-N-{(3aR,4S,6aS)-2-[2-fluoro-3-(trifluoromethyl)phenyl]octahydrocyclopenta[c]pyrrol-4-yl}-L-prolinamide], the IC50 amounted to 1320 nM.
With `O=C(N[C@H]1CC[C@@H]2CN(c3ccc(F)c(C(F)(F)F)c3)C[C@@H]21)[C@@H]1C[C@@H](F)CN1` [Example 626, (4R)-4-fluoro-N-{(3aR,4S,6aS)-2-[4-fluoro-3-(trifluoromethyl)phenyl]octahydrocyclopenta[c]pyrrol-4-yl}-L-prolinamide], the IC50 stood at 4520 nM.
Take `CN[C@@H](CC(C)C)C(=O)N[C@H]1CC[C@@H]2CN(c3cccc(Cl)c3)C[C@@H]21` [Example 628, N-[(3aR,4S,6aS)-2-(3-chlorophenyl)octahydrocyclopenta[c]pyrrol-4-yl]-N^2-methyl-L-leucinamide]: the IC50 was determined as 3530 nM.
